Results published in patent US7897620B2, “Methods of using anti-inflammatory compounds” (Cambridge Enterprise Limited, priority 2007, dated 2011).
Where two headings read alike, the source gives them in different places.

Assays:
[1] = Pharmacokinetics following a single dose in rat (LC-MS/MS of blood, one-compartment model); assay type: in vivo; details: for AUC(0-inf): single oral dose 3 mg/kg in 1% CMC, read-out: Exposure (AUC 0->infinity) (converted); for clearance: read-out: Clearance; for bioavailability: po, 3 mg/kg
Description: Compounds were administered as a single dose (either 1 mg/kg bodyweight in 5% DMSO via the intravenous route or 3 mg/kg in 1% carboxymethylcellulose via the oral route) to three adult rats (using different rats for each compound and each route of administration).
Blood was then sampled at various time points (including just prior to dose administration) out to 24 hrs post dose, and the level of the various compounds was assessed using a validated LC-MS/MS assay. Briefly, 3-5 μl of the deproteinised sample was applied to a Waters Atlantis (C18 20×2.1 mm, 3 μm bead size) reverse phase chromatography column equilibrated in 0.1% formic acid in 95:5 water:actetonitrile. Over 3.5 minutes bound material was gradient eluted reaching 0.1% formic acid in 5:95 water:acetonitrile, followed by a step gradient back to 0.1% formic acid in 95:5 water:acetonitrile. The column eluent was then directed to an Applied Biosystems API 4000/3200 QTrap MS/MS mass spectrometer, with a Turbolonspray™ ion source operating in positive ion mode. The interface temperature was set at 650° C., with a 40 ms dwell time for each MRM transition, monitoring the following ions:
The internal standard in each determination was the related compound (S)-3-(2′,2′-dimethylpropanoylamino)-caprolactam, which was spiked into the sample prior to deproteinization. The lower limit of quantitation (LLOQ) for this assay was 2.4 ng/ml for each compound except (I′), where it was 38.1 ng/ml.
Following LC-MS/MS analysis of each collected sample, the pharmacokinetic disposition of the compound was modelled using Kinetica software, a well known software package for such applications.

[2] = system: C5a induced neutrophil migration; assay: ChemoTx transwell migration assay, C5a induced migration of neutrophils (non-chemokine chemoattractant); assay type: cell-based; details: highest concentration tested 1 μM, read-out: ED50 C5a neutrophils
Description: In principle, this assay consists of two chambers separated by a porous membrane. The chemoattractant is placed in the lower compartment and the cells are placed in the upper compartment. After incubation for a period at 37° C. the cells move towards the chemoattractant, and the number of cells in the lower compartment is proportional to the chemoattractant activity (relative to a series of controls).
Next, the chemoattractant solution to be placed in the lower compartment is prepared. For example, MCP-1 is diluted in GBSS+BSA to give a final concentration of 25 ng/ml. This is divided into two pots, as for the cell suspension. To one pot, the test compound is added to the same final concentration as was added to the cell suspension, while to the other pot an equal volume of GBSS+BSA plus vehicle as appropriate (e,g. not more than 1% DMSO) is added. Alternatively, other chemokines may be used (SDF-1α at 7.5 ng/ml; RANTES at 50 ng/ml; IL-8 at 10 ng/ml using neutrophils as the target cell population). In each case it is important to determine (in a separate experiment) the concentration of each chemokine which causes maximal stimulation of migration of the chosen target leukocyte population. […]
The number of cells migrated into the lower chamber under each condition can then be determined by a number of methods, including direct counting, labelling with fluorescent or radioactive markers or through the use of a vital dye. […] 3 μl of stock MTT solution are added to each well, and then the plate is incubated at 37° C. for 1-2 hours during which time dehydrogenase enzymes within the cells convert the soluble MTT to an insoluble blue formazan product that can be quantified spectrophotometrically. […]
At the end of this incubation, the liquid is carefully removed from the lower chambers, taking care not to disturb the precipitated formazan product. After allowing to air dry briefly, 20 μl of DMSO is added to each lower chamber to solubilise the blue dye, and absorbance at 595 nm is determined using a 96-well plate reader. […]

[3] = blood, rat, averaged across three rats
[4] = rat, blood, iv, 1 mg/kg, rat, one-compartment model, averaged across three rats
[5] = rat, one-compartment model, averaged across three rats
[6] = plasma, iv, 1 mg/kg, rat, one-compartment model, averaged across three rats, read-out: t½ (mins) dominant plasma half-life
[7] = rat, blood, iv, 1 mg/kg, rat, one-compartment model, averaged across three rats, read-out: Vss (L/kg) volume of distribution
[8] = rat, blood, rat, 1 mg/kg iv in 5% DMSO and 3 mg/kg oral in 1% CMC, one-compartment model, averaged across three rats, read-out: F (%) oral bioavailability
[9] = blood, Rat, Intravenous PK (1 mg/kg), read-out: Half-life
[10] = blood, Rat, Oral PK (3 mg/kg), read-out: Half-life
[11] = rat, blood, iv, 1 mg/kg, Rat, Intravenous PK (1 mg/kg)
[12] = rat, blood, iv, 1 mg/kg, Rat, Intravenous PK (1 mg/kg), read-out: Vss
[13] = rat, blood, Rat, Oral PK (3 mg/kg), read-out: Bioavailability (%)

Structure (SMILES)	AUC(0-inf) [1, 3] [ng·h/mL]	clearance [1, 4] [mL/min/kg]	EC50 [2] [nM]	half-life [1, 6] [min]	Vd [1, 7] [L/kg]	bioavailability [1, 8] [%]	half-life [1, 9] [min]	AUC ([1]; blood, Rat, Oral PK (3 mg/kg)) [ng·h/mL]	Tmax ([1]; blood, Rat, Oral PK (3 mg/kg)) [min]	half-life [1, 10] [min]	clearance [1, 11] [mL/min/kg]	Vd [1, 12] [L/kg]	bioavailability [1, 13] [%]	other results
O=C1NCCCC[C@@H]1NC(=O)C12CC3CC(CC(C3)C1)C2 [(II), 3-(adamantane-1-carbonylamino)-caprolactam]	7.95	84	> 1000											F (%) oral bioavailability ([1]; rat, 1 mg/kg iv in 5% DMSO and 3 mg/kg oral in 1% CMC, one-compartment model, averaged across three rats): <1%; Vss (L/kg) volume of distribution [1, 5]: 0.8 L/kg; t½ (mins) dominant plasma half-life [1, 5]: 16 min
CC(C)(C)S(=O)(=O)N[C@H]1CCCCNC1=O [(IV), 3-(1′,1′-dimethylethylsulfonylamino)-caprolactam]	690	32		19	0.6	45								
O=C1NCCCC[C@@H]1NC(=O)C12CC3CC(CC(O)(C3)C1)C2 [(V), 3-(3′-hydroxyadamantyl-1-carbonylamino)-caprolactam]	952	31	> 1000	24	1.4	59	24	952	15	24	33	0.8	59	
CC(C)(C)C(=O)N[C@H]1CCCNC1=O [Compound (I′), 3-(2′,2′-dimethylpropanoylamino)-tetrahydropyridin-2-one]	15600		> 1000	196	0.7	69	196	15600	15 to 120	226	2.6	0.7	81	half-life ([1]; plasma, intravenous, 1 mg/kg, rat, read-out: plasma half-life): > 180 min; clearance, times lower than for the other lactam BSCIs ([1]; rat): more than 10 fold; clearance ([1]; rat, blood, intravenous, 1 mg/kg, rat, one-compartment model, averaged across three rats): 2.6 mL/min/kg; exposure relative to the next best compound (V) ([1]; rat, oral): ~20 fold; plasma half-life, fold longer ([1]; rat, versus the other compounds examined): 10 fold
